Experimental data as given in a melting point compilation (Tetko et al.; mined from patent text by program, amines drawn as free bases though some values may be those of a salt).

melting point | Compound
140 to 142 °C | CCOC(=O)C(=Cc1cccn2cc(C(F)(F)F)nc12)N=[N+]=[N-]
243 to 245 °C | c1ccc2c(c1)NCc1c(-c3noc(C4CC4)n3)ncn1-2
126 to 127 °C | CCOC(=O)C1=C(C)NC(C#N)=C(C(=O)OCC)C1c1ccccc1C(=O)OC (stereo unspecified)
145 to 146 °C | COC1=NC(C)=C(C(=O)OC(C)C)C(c2cccc([N+](=O)[O-])c2)N1C(=O)N(C)Cc1ccccc1 (stereo unspecified)
211 to 213 °C | CC1(C)N(C=O)CC(=O)N1CC(N)=O
249 to 251 °C | CCc1ccc(NC2=CC3=NCN(C)C3=CC2(F)C(N)=O)c(F)c1 (stereo unspecified)
99 °C | CC(=O)NCCN1CCCc2ccc(C)cc21
187 to 189 °C | CCC1(CCOCCNC(=O)NC2CCCCC2)Nc2cnc(C)c(C)c2N1 (stereo unspecified)
89 to 95 °C | CCNC(=O)c1ccc(C2(C(N)=O)CN(C(=O)OC(C)(C)C)CCc3c2cc(CC)c(CC)c3Cl)cc1 (stereo unspecified)
151 to 154 °C | Cc1cc(C=CC(=O)COc2ccc(CC(=O)O)cc2)cc(C)c1O
101 to 102 °C | CCCCCCc1cn(CC2OC(n3cnc4c(NCc5ccc(OC)cc5)ncnc43)C(O)C2O)nn1 (stereo unspecified)
57 to 58 °C | COC(=O)c1sc2ccccc2c1OCC(C)=O
85 to 87 °C | Cc1cc(C(=O)C(=O)O)c(O)cc1Oc1ccccc1
172 to 175 °C | CCN(CC)C(=O)N1CCC(C(O)(c2ccc(Cl)cc2)c2ccc(Cl)cc2)CC1
224 to 226 °C | O=CNNc1ccccc1NC(=S)Nc1ccccc1
188 °C | COC(=O)CN1C(=O)c2ccc3ccccc3c2S1(=O)=O
145 to 148 °C | Clc1ccccc1-c1cnc2nncn2n1
155 °C | CCOc1nn(C(=O)NS(=O)(=O)c2c(C)cccc2OC(C)C)c(=O)n1C
180 to 182 °C | CCN(c1ccc(Cl)cc1C(N)=S)S(=O)(=O)c1ccc(C)cc1
120 to 122 °C | O=C(Nc1cccnc1Cl)N1CCc2ccccc2CC1
33 to 34 °C | COC(=O)C(C)Nc1c(C)csc1C (stereo unspecified)
86 to 87 °C | COC(=O)C(=O)c1ccc(OCCOC2CCc3ccccc3C2)cc1 (stereo unspecified)
172 to 173 °C | CSc1ccc(-n2cnc(-c3ccc(F)cc3)c2-c2ccncc2)cc1
156 to 159 °C | O=c1c2ccccc2[nH]n1-c1ccccc1F
160 to 162 °C | CN(C)Cc1cccc(-c2csc(N=C(N)N)n2)n1

melting point | Compound
118 to 120 °C | Cc1c(C)c2c(c(C)c1NCc1ccc(F)cc1)C(c1ccc(F)cc1)C(C)(C)O2 (stereo unspecified)
64 to 67 °C | O=Cc1ccccc1C(=O)c1ccccc1
113 °C | COC(=O)CN1CCCC(Nc2ncc3ncnc(Nc4cccc(Br)c4)c3n2)C1 (stereo unspecified)
280 °C | Nc1cc(-n2cc(C(=O)O)c(=O)c3cc(F)c(F)c(Cl)c32)ncc1F
212 to 215 °C | O=C(O)CCSCC(=O)c1ccc2[nH]c(=O)[nH]c2c1
64 to 67 °C | CON=C(C#CCCl)C(=O)OC
252 °C | COc1cc2nc3ccc(F)cc3sc-2cc1=O
131 to 136 °C | O=CC=C(c1cccc([N+](=O)[O-])c1)c1cccc([N+](=O)[O-])c1
120 to 121 °C | CCOC(=O)c1cccc(-c2ccc3cc[nH]c3c2)c1
236 to 239 °C | Cc1c(O)cnn(C(C)(C)C)c1=O
166 °C | CC(C)(C)NC(=O)CN(C(=O)CN1C(=O)c2ccccc2C1=O)c1ccccc1
117 °C | O=C(c1ccncc1)c1cc(-c2ccc(Cl)cc2)c(N2CCOCC2)s1
190 to 191 °C | CC(=O)c1cc(C(=O)c2ccccc2Cl)c(N)s1
150 to 155 °C | Cc1ccc(Cc2cnc(NCCCN(Cc3ccccc3)c3ccc(Br)cn3)[nH]c2=O)cn1
95 to 98 °C | CN1CCC(c2cn(S(=O)(=O)c3c(F)cccc3F)c3ccc(OS(=O)(=O)c4c(F)cccc4F)cc23)CC1
239 to 246 °C | CCNc1ccc2c(c1)N1CCN=C1S2
52 to 54 °C | COC(=O)c1ccc(OC)nc1OC
115 to 117 °C | CN1C(=S)N(c2ccc(Cl)c(Cl)c2)C(O)C1O (stereo unspecified)
154 to 155 °C | CCOC(=O)OC1=C(c2c(C)cc(C)cc2C)C(=O)NC1C1CCN(OC)CC1 (stereo unspecified)
142 to 143 °C | CC(C)(C)OC(=O)NN(Cc1ccccc1)C[C@H](O)[C@H](Cc1ccccc1)NC(=O)OCc1ccccc1
210 to 214 °C | O=C(O)c1ccc(NC(=O)N(Cc2ccccc2)Cc2ccccc2)cc1
242 to 244 °C | Cc1nc2cc3c(cc2o1)C1(CO3)C(=O)Nc2ccccc21 (stereo unspecified)
180 to 181 °C | O=C(O)COc1cccc2c1CCc1sc(S(=O)(=O)CCCC(c3ccccc3)c3ccccc3)nc1-2
66 to 68 °C | CCOC(=O)c1c(C)[nH]c2ccc(OC[C@@H](O)CN)cc12
267 to 271 °C | Cn1cc(-c2cc3nccnc3[nH]2)c2cc(OC3(CO)CCC3)ccc21

melting point | Compound
37 to 43 °C | CCOC(=O)c1c(C(F)F)nc(C(F)(F)F)c(C(=O)OCC)c1Br
58 to 59 °C | CSc1ccc(C=O)cc1Cl
313 to 315 °C | Cc1ccc2c(=O)n(C3CCC(=O)NC3=O)cnc2c1 (stereo unspecified)
215 °C | CC1CN(C(=O)C(Cl)Cl)C(C)CN1C(=O)C(Cl)Cl (stereo unspecified)
164 °C | COc1ccc(C2=N[C@H](c3ccccc3)[C@@H](OC(=O)Oc3ccc([N+](=O)[O-])cc3)CO2)cc1 (racemic)
182 °C | CC1CC(=O)NN=C1c1ccc(N2CCN(C(=O)NCCCc3c[nH]cn3)CC2)c([N+](=O)[O-])c1 (stereo unspecified)
106 °C | CCCCCCCCCCCCCC(=O)NC1CC(C)(C)N(CC#N)C(C)(C)C1
85 to 87 °C | OC(CCN1CCN(c2ccccc2)CC1)c1ccccc1 (stereo unspecified)
76.8 to 80 °C | COC(=O)C(C)(C)n1nnc2ccc(Oc3cc(F)c(C(F)(F)F)c(Cl)c3)cc21
160 °C | CC(=O)N1CCC(COC2c3ccccc3C(=O)N2c2ccc3ccc(Cl)nc3n2)CC1 (stereo unspecified)
208 to 210 °C | Cc1oc(-c2ccccc2)nc1CCNCc1ccc(C[C@@H](C(=O)O)n2cccc2)cc1
135 to 138 °C | S=C=Nc1ccc2oc(-c3ccc(CN4CCOCC4)s3)nc2c1
270 to 271 °C | Cc1nc2cccnc2n(-c2ccc(F)cc2)c1=O
142 to 145 °C | CNCCN1C(=O)[C@H](O)[C@H](c2ccc(OC)cc2)Sc2cc(Cl)ccc21
167 to 169 °C | Cc1noc2cc3c(cc12)C1(CO3)C(=O)N(Cc2ncccc2F)c2ccccc21 (stereo unspecified)
179 to 180 °C | O=C(O)CCc1oc(-n2ccnc2-c2ccccc2)nc1-c1ccc(Cl)cc1
109 to 111 °C | CCCOc1nc(C(F)(F)C(F)(F)F)cc(=O)n1-c1cc(O)c(Cl)cc1F
194 to 195 °C | CON=C(C(=O)O)c1cccc(NC(=O)C(F)(F)F)n1
203 to 204 °C | Cc1ccnc2[nH]c(C3CC3)nc12
118 to 121 °C | CNC(=O)c1ccccc1C(=O)NCSc1ccncc1
82.5 to 83.5 °C | COC1C(O)C=C(C)C(OC(=O)c2ccccc2)CC1(C)C (stereo unspecified)
100 to 101 °C | O=[N+]([O-])c1cccc(OCc2ccccc2)c1[N+](=O)[O-]
193 °C | CCN(CC)c1ccc(C2(c3c(C)n(CC)c4ccccc34)OC(=O)c3ccccc32)c(OC(C)C)c1 (stereo unspecified)
72 to 73 °C | CCOC(=O)Cc1c(Cl)nc(-c2ccccc2)n1Cc1ccccc1
201 to 203 °C | CC(=O)Nc1nc2c(Oc3cc(-c4ccc(C(F)(F)F)cc4OCc4ccccc4)ncn3)cccc2s1

melting point | Compound
119 to 121 °C | Cc1nc(-c2ccccc2)nc(OCC(=O)N(CC2CC2)c2ccccc2)c1C
> 300 °C | NC(=O)c1ccc2c([N+](=O)[O-])cc3c(c2c1)C(CCl)CN3 (stereo unspecified)
92 to 94 °C | CCN(CC)CCNC(=O)c1cc(Cl)c(N)cc1OCC(=O)OC
88 to 91 °C | CN(C)C=CC(=O)c1ccccc1
65 to 68 °C | FC1(F)C(Oc2cc(Cl)c(Cl)cc2Cl)=C(Oc2cc(Cl)c(Cl)cc2Cl)C(F)(F)C1(F)F
94 to 95 °C | COc1ccc(-c2cc(C=O)c3occc3c2)cc1
153 to 154 °C | Cc1cccc(Nc2ncccc2[N+](=O)[O-])n1
127 to 128 °C | Cc1ccc2sc3cc(C(=O)Cl)ccc3c2c1
192 to 193 °C | CC(C)(C)C(O)Cn1c(-c2ccccc2[N+](=O)[O-])nc2ccccc21 (stereo unspecified)
162 to 164 °C | Fc1cccc(Cl)c1COc1cccnc1NC(=S)Nc1ccc(Cl)cc1
110 to 113 °C | NC(=O)NCCCCC1CCSS1 (stereo unspecified)
189 °C | CCc1cc(=O)c2ccc(O)cc2o1
62 to 64 °C | O=C(C1CC1)N1CCCC1Cc1ccc(Cl)cc1 (stereo unspecified)
154 to 156 °C | CCOC(=O)C1CCC2(c3cc(OC)c(OC)cc3CCN2C(=O)CCN(C)C)C(C2c3cc(OC)c(OC)cc3CCN2CC)C1 (stereo unspecified)
206 to 207 °C | O=C(c1cccc(-c2cc3ccccc3[nH]2)c1)c1cc2ccccc2[nH]1
107 to 112 °C | O=C(Nc1cccc(-c2nnn[nH]2)c1)C(=O)N1CCC(Cc2ccc(F)cc2)CC1
304 to 306 °C | O=C1NC(=O)c2c1cc1ccc3c(c1c2-c1ccc(C(F)(F)F)cc1)OCO3
181 to 183 °C | CC(=O)c1ccc(NCc2cc3c(cc2O)CCO3)cc1
130 to 131 °C | CSc1ccc(C2OC(=O)NC2O)cc1 (stereo unspecified)
221 to 223 °C | C[C@H](Cn1ncnn1)n1cnc2cc3c(=O)n(C4CC4)cnc3cc2c1=O
126 to 127 °C | O=C(O)CC(=O)N(c1ccccc1)c1ccccc1
200 °C | CNC(=O)NCCN1CCC(Nc2nc3ccccc3n2Cc2ccc(C)o2)CC1
153 to 154 °C | CCOC(=O)c1cn(Cc2ccccc2)nc1OCc1ccc(OCc2nc(-c3ccco3)oc2C)c(Cl)c1
220 to 226 °C | COc1cc2c(Nc3ccc(Sc4nccn4C)c(Cl)c3)c(C#N)cnc2cc1N1CCN(C2CCN(C)CC2)CC1

Compound | melting point
O=NCNC1=Nc2ccccc2N(c2ccccc2)C(=O)C1 | 139 to 140 °C
ClCCN1C2C=C(c3ccc4ccccc4c3)CC1CC2 (stereo unspecified) | 122 to 123 °C
